# Experimental data as given in patent US6692927B2, “Bax degradation involvement in tumor survival and progression” (University of South Florida, priority 2000, dated 2004).
# Where a SMILES comes first, the peptide text is derived from it. [ ]: non-standard residue; d: D form. The star is where a group is joined. Nva = CCC[C@H](N)C(=O)O; Cbz = O=C(OCc1ccccc1)*
# Tests used:
# [1] = test system: Jurkat T cells overexpressing Bcl-2; test: Western blot, fractionation, RT-PCR, immunostaining and IP in Bcl-2-overexpressing Jurkat T cells; type: cell-based, human; settings: for cytoplasmic Bax-immunofluorescent signals: immunofluorescent staining
# Experimental: FIGS. 7A-7H show proteasome inhibitor LLnV induces Bax accumulation, cytochrome c release and PARP cleavage in Bcl-2-overexpressing Jurkat T cells. (FIGS. 7A-7C) Jurkat T cells overexpressing Bcl-2 (0 h) were treated with 50 μM LLnV for up to 8 h, followed by preparation of cytosol and mitochondrial fractions. Both fractions were immunoblotted first by an antibody to cytochrome c (Cyto C, MW 17 kDa; FIG. 7A and FIG. 7C) and then reblotted by anti-cytochrome oxidase subunit II (COX, MW 26 kDa; FIG. 7B). Note: 20 μg protein from the cytosol, and 40 μg protein from the mitochondrial, preparation was used in each lane. (FIGS. 7D-7G) Whole cell extracts (70 μg per lane) of the above treated cells were immunoblotted with specific antibodies to PARP (FIG. 7D), Bax (clone N-20; FIG. E), Bcl-2 (FIG. 7F), or actin (FIG. 7G). Molecular masses of PARP, the PARP cleavage fragment (p85), Bax, Bcl-2 and actin are 113, 85, 21, 26 and 40 kDa, respectively. Positions of protein markers are indicated at right. (FIG. 7H) Bcl-2-expressing Jurkat cells (Control) were treated with 50 μM LLnV for 8 h, followed by RT-PCR. For the first-strand cDNA synthesis, 0.2 (lanes 1, 4), 0.6 (lanes 2, 5) and 1.8 μg (lanes 3, 6) of the total RNA were used. The positions of Bax (538 bp) and G3PDH mRNA (983 bp) are indicated. Lane M is DNA molecular weight marker.
# FIGS. 8A-8D show proteasome inhibition accumulates Bax to mitochondria/cytoplasm and increases interaction between Bax and Bcl-2 proteins. Jurkat cells (0 h; FIG. 8A and FIG. 8B) or Jurkat cells overexpressing Bcl-2 (0 h; FIG. 8C and FIG. 8D) were treated by either 10 μM lactacystin (FIGS. 8A-8C), 50 μM LLnV (FIG. 8D), or 50 μM LLM (FIG. 8A and FIG. 8B) for the indicated hours. (FIG. 8A and FIG. 8B) Western blotting with antibodies to PARP and Bax were performed as described in FIG. 7. (FIG. 8C) Immunohistochemistry (see MATERIALS AND METHODS). Localization of Bax protein (green) and nuclei (red) are shown. (FIG. 8D) Bax immunoprecipitates, prepared by an agarose-conjugated N-20 Bax antibody, were immunoblotted first with the 6A7 Bax antibody (upper) and then reblotted with a Bcl-2 antibody (lower).
# Cell Culture and Drug Treatment: Human breast cancer MCF-7 cells, Jurkat T cells, and Jurkat T cells stably transfected with pRcCMV vector containing a complete human bcl-2 cDNA (obtained from Dr. Hong-gang Wang, Moffitt Cancer Center & Research Institute) were grown in RPMI 1640 growth medium (An et al., 1998). Treatment of cell with a proteasome inhibitor was performed as described (An et al., 1998; Dou et al., 1999).
# Western blot analysis and Immunoprecipitation: Whole cell extract (An et al., 1996), whole tissue extracts (Loda et al., 1997), and cytosol and mitochondria fractions (Fang et al., 1998) were prepared as described. The enhanced chemiluminescence Western blot assay was performed as described previously (An et al., 1996). To perform a coupled immunoprecipitation-Western blot assay, a whole cell or tissue extract (200 microg protein) was first precleared by incubating with protein A plus protein G agarose beads (Calbiochem) at 4° C. for 2 hours. The collected supernatant was then incubated for at least 3 hours with either […] of agarose beads conjugated with the N20 Bax antibody (Santa Cruz Biotech), or the 6A7 Bax antibody, followed by incubation with protein A/protein G beads at 4° C. overnight. The washed Bax immunoprecipitates were boiled in SDS sample buffer and used for Western blotting with antibodies to Bax, Bcl-2 or ubiquitin.
# Immunocytochemistry and Reverse Transcriptase-Polymerase Chain Reaction (RT-PCR): Immunocytochemistry was performed with the rabbit polyclonal Bax antibody (N20) and an FITO-labeled goat anti-rabbit antibody (Southern Biotech.; Birmingham, Ala.), followed by counter-staining nuclei with propidium iodide (Sigma) (Bossy-Wetzel et al., 1998). To perform RT-PCR, total RNA was isolated from Jurkat T cells by an Advantage RT-for-PCR kit (Clontech; palo Alto, Calif.). […]
# [2] = test system: normal human breast cells MCF-10A; test: cellular detachment of normal breast cells; type: cell-based; settings: 48 hours or even 72 hours
# Experimental: Proteasome inhibitors selectively induce apoptosis in human breast cancer, but not normal, cells. […] Cells of both human breast cancer lines became detached in a lactacystin-concentration-dependent manner (FIG. 3). No detachment was induced in the normal human breast cells MCF-10A after treatment with lactacystin for 48 hours (FIG. 3) or even 72 hours. Proteasome inhibition-induced detachment of breast cancer cells is due to apoptosis (An et al., in press).
Structure (SMILES),"level of cytosolic cytochrome c ([1]; 50 μM LLnV, 6 to 8 hours)","level of Bax protein (Bax/p21) ([1]; 50 μM LLnV, 1 hour or longer, Western blot)","Bax mRNA level ([1]; 50 μM LLnV, 8 h, RT-PCR)","levels of Bax/p21 and Bax-bound Bcl-2 protein ([1]; 50 μM LLnV, Bax immunoprecipitation-Western blot)","induction of apoptosis (PARP cleavage) ([1]; 50 μM LLnV, up to 8 h)","levels of the overexpressed Bcl-2 protein ([1]; 50 μM LLnV, up to 8 h)",cytoplasmic Bax-immunofluorescent signals [1],cellular detachment [2]
CCC[C@@H](C=O)NC(=O)[C@H](CC(C)C)NC(=O)[C@H](CC(C)C)NC(=O)OCc1ccccc1 [LLnV] (Cbz-Leu-Leu-[Nva]-aldehyde),increased,increased,remained unchanged,significantly increased,cleavage of PARP,Little changes,markedly increased,–
CC(=O)N[C@@H](CSC(=O)[C@]1([C@@H](O)C(C)C)NC(=O)[C@H](C)[C@@H]1O)C(=O)O [lactacystin],–,–,–,–,–,–,markedly increased,No detachment
